Results: article PMC11740379, “Novel Enyne-Modified 1,4-Thiazepines as Epidermal Growth Factor Receptor Inhibitors: Anticancer and Computational Studies” (ACS Omega, 2024)
Where two headings read alike, the source gives them in different places.

Columns and labels:
Bax mRNA = test: qRT-PCR of apoptosis-related mRNA; type: cell-based, human; details: 72 h, vs untreated control
Experimental: (§1) To measure the mRNA expression levels of apoptosis-related genes B-cell lymphoma 2 (Bcl-2), Bcl-2-associated X protein (Bax), Cyclin-dependent kinase 2 (CDK2), and Cyclin E, total mRNA was extracted from cells treated with compound 6f using Trizol reagent (Sigma). cDNA was synthesized from the total mRNA using the Qiagen cDNA synthesis kit according to the manufacturer’s instructions. The following primers, each at a concentration of 350 nM, were employed: Bcl-2; forward ([…]), reverse ([…]); Bax; forward ([…]), reverse ([…]); Caspase-8; forward ([…]), reverse ([…]); Caspase-9; forward (TGTCTACGGCACAGATGGA), reverse (GGACTCGTCTTCAGGGGA); EGFRWT: forward ([…]), reverse (CCTGTGCCAGGGACCTTAC−); EGFRT790 M forward ([…]), reverse ([…]); human GAPDH; forward ([…]), reverse (AGATGGTGATGGGCTTCCC). The PCR mix was prepared with 1× buffer containing 0.2 mM dNTPs, 1.6 mM MgCl2, […] of each primer set, cDNA, and 0.25 U Taq polymerase. The PCR conditions were as follows: an initial denaturation at 95 °C for 60 s, followed by 50 cycles of 95 °C for 15 s, 60 °C for 15 s, and 72 °C for 60 s. The cycle threshold (CT) for each replicate was normalized to the average CT of the endogenous control (GAPDH). The relative quantification of gene expression was calculated using the comparative CT method.[17]

Caspase-9 mRNA = test: qRT-PCR of apoptosis-related mRNA; type: cell-based, human; details: 72 h, vs untreated control
Experimental: as §1

Caspase-8 mRNA = test: qRT-PCR of apoptosis-related mRNA; type: cell-based, human; details: 72 h, vs untreated control
Experimental: as §1

Bcl-2 mRNA = test: qRT-PCR of apoptosis-related mRNA; type: cell-based, human; details: 72 h, vs untreated control
Experimental: as §1

EGFRT790M kinase = EGFRT790M kinase (Homo sapiens, UniProt P00533, T790M); test: EGFR kinase inhibition assay (HTRF KinEASE-TK); type: biochemical
Sequence of EGFRT790M kinase (P00533 25-1210 T790M): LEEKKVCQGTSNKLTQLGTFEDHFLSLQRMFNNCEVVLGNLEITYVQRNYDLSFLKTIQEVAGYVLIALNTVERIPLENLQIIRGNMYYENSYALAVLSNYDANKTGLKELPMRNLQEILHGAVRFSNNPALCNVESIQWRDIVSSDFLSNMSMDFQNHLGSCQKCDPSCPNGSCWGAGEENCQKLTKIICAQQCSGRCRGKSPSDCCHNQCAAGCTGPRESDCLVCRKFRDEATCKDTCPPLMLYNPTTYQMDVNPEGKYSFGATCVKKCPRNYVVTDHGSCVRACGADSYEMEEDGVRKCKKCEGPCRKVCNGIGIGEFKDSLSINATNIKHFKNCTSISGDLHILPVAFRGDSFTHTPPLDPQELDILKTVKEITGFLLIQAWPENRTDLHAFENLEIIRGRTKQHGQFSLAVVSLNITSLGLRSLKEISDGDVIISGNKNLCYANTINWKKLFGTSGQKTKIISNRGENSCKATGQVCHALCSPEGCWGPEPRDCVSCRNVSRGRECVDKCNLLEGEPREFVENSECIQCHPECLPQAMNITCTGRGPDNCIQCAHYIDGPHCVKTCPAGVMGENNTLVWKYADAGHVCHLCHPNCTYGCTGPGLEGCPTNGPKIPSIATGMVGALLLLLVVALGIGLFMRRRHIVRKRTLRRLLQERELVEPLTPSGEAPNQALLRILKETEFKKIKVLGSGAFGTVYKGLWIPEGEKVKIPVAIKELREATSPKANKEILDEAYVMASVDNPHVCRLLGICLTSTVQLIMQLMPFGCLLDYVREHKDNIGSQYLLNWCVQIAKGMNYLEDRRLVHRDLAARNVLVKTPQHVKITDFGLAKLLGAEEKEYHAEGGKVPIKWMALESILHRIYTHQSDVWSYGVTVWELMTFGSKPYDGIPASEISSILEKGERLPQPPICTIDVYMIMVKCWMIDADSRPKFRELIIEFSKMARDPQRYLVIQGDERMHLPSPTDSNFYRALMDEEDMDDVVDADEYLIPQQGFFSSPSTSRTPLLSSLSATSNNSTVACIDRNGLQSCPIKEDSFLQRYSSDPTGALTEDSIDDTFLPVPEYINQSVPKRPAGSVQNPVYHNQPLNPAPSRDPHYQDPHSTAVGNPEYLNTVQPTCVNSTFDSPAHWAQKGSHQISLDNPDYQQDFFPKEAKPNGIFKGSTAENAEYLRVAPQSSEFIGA
Experimental: The inhibitory effects of the target compounds on various EGFR kinases were assessed using a homogeneous time-resolved fluorescence (HTRF) assay, employing the HTRF KinEASE-TK kit (Cat# 62TK0PEC, Cisbio).[18] TZEP7 was tested at a range of diluted concentrations in the presence of 1% dimethyl sulfoxide (DMSO), with the kinase and compounds preincubated for 5 min. The reactions were initiated by adding ATP and TK-substrate-biotin, followed by a 60 min incubation at room temperature. The reactions were then stopped using a stop buffer containing 62.5 nM Strep-XL665 and TK antibody (Ab)-Cryptate. After a 1 h incubation of the plate, readings were taken on a microplate reader under standard HTRF conditions. IC50 values were calculated using GraphPad Prism 5.0 software. Each reaction was duplicated, and at least three independent determinations were conducted. The data were analyzed using GraphPad Prism.

A549 cells = test: Annexin V-FITC/PI apoptosis detection by flow cytometry; type: cell-based, human; details: A549, IC50 concentration, 72 h
Source text: (§2) Annexin V, a protein with a high affinity for phosphatidylserine (PS), is pivotal in detecting apoptosis. Normally, PS is located in the inner leaflet of the plasma membrane, but during apoptosis, it moves to the outer leaflet, making it a key marker for apoptotic cells.[16] Annexin V binds specifically to PS on the surface of these cells. A secondary dye like propidium iodide (PI) is used to distinguish apoptotic cells from viable ones with intact membranes. We can identify and quantify viable cells (annexin V–, PI–) and apoptotic cells (annexin V+, PI+) by analyzing fluorescence patterns. Here, we employed the FITC Annexin V Apoptosis Detection Kit I from BD Pharmingen. Cells were seeded at a density of 10^6 cells per well in a 6-well plate and exposed to IC50 concentration of TZEP7 for 72 h. Following treatment, cells were rinsed with cold PBS, resuspended in 1 mL of 1× Binding Buffer, and stained with 5 μL of Annexin V FITC and 5 μL of PI. After vortexing, the samples were incubated at room temperature (25 °C) for 15 min in the dark. Postincubation, 400 μL of 1× Binding Buffer was added to each sample, and apoptosis was measured using a BD Accuri C6 Flow Cytometer. Cisplatin was used as an apoptosis-inducing reference drug.

PC-3 cells = test: as above; type: cell-based, human; details: PC-3, IC50 concentration, 72 h
Source text: as §2

MCF-7 cells = test: as above; type: cell-based, human; details: MCF-7, IC50 concentration, 72 h
Source text: as §2

HEK-293 cells = test: XTT cytotoxicity assay, non-tumorigenic cells; type: cell-based, human; details: Homo sapiens, HEK293; XTT assay; exposure time of the IC50 not stated (24, 48, 72 h tested)
Experimental: (§3) Human cell lines for breast cancer (MCF-7), lung cancer (A549), prostate cancer (PC-3), and nontumorigenic HEK-293 were sourced from the Health Protection Agency (U.K.) and the Interlab Cell Line Collection (Italy). The cells were cultured in RPMI medium (Sigma) supplemented with 10% heat-inactivated fetal bovine serum, 1% penicillin, and 1% L-glutamine, and incubated in a humidified CO2 atmosphere at 37 °C.
(§4) To evaluate the cytotoxic effects of TZEPs, which were dissolved in dimethyl sulfoxide (DMSO), the XTT assay (2,3-bis(2-methoxy-4-nitro-5-sulfophenyl)-2H-tetrazolium-5-carboxanilide) was employed. Cells were plated in 96-well plates at a density of 10^4 cells per well and exposed to varying concentrations of TZEPs (ranging from 1 to 250 μM) for 24, 48, and 72 h. Following the incubation, 100 μL of XTT was added to each well, and the plates were incubated for an additional 4 h at 37 °C. The resulting color change was measured by recording the absorbance at 570 nm using a microplate reader (Tecan).
(§5) The IC50 values, which indicate the concentration of the compound required to inhibit 50% of cancer cell proliferation, were determined using Biosoft CalcuSyn 2.1 software. […] Conversely, an SI less than 1 means the drug is more toxic to normal cells than to target cells, which is undesirable in therapeutic contexts. In the literature, a selectivity index of 2 or higher is generally considered significant, implying that the compound selectively targets diseased cells with relatively low toxicity to healthy cells.[15]

[1] = XTT cytotoxicity assay, non-tumorigenic cells; type: cell-based, human; details: human, HEK-293 cells (nontumorigenic), read-out: cell viability
Experimental: as §3, §4, §5

In the case of Cc1cc(C2=NCC(=CC#Cc3ccccc3)SC(c3ccc(Cl)cc3)=C2)ccc1F [TZEP7], the “increase of Bax mRNA level” value (Bax mRNA; A549, IC50 concentration) is reported as 4.8 fold, the “increase of Bax mRNA level” value (Bax mRNA; MCF-7, IC50 concentration) is reported as 4.1 fold and the “increase of Bax mRNA level” value (Bax mRNA; PC-3, IC50 concentration) is reported as 4.3 fold. For the same molecule, the “induction of Caspase-9 mRNA level” value (Caspase-9 mRNA; A549, IC50 concentration) was 3.7 fold, the “induction of Caspase-9 mRNA level” value (Caspase-9 mRNA; MCF-7, IC50 concentration) was 4.4 fold and the “induction of Caspase-9 mRNA level” value (Caspase-9 mRNA; PC-3, IC50 concentration) was 3.6 fold. For the same molecule, the “induction of Caspase-8 mRNA level” value (Caspase-8 mRNA; A549, IC50 concentration) was 3.8 fold, the “induction of Caspase-8 mRNA level” value (Caspase-8 mRNA; MCF-7, IC50 concentration) was 4.2 fold and the “induction of Caspase-8 mRNA level” value (Caspase-8 mRNA; PC-3, IC50 concentration) was 5.4 fold. The “reduction of Bcl-2 mRNA level” value (Bcl-2 mRNA; A549, IC50 concentration) was 3.3 fold, the “reduction of Bcl-2 mRNA level” value (Bcl-2 mRNA; MCF-7, IC50 concentration) was 3.4 fold and the “reduction of Bcl-2 mRNA level” value (Bcl-2 mRNA; PC-3, IC50 concentration) was 4.3 fold. The IC50 (EGFRT790M kinase) was 280 nM, the IC50 (EGFRT790M kinase; A549 cells) was 220 nM and the IC50 (EGFRT790M kinase; MCF-7 cells) was 290 nM. For the same molecule, the “cells in early apoptosis” value (A549 cells) was 15.1%, the “cells in late apoptosis” value (A549 cells) was 68.7% and the “cells in early apoptosis” value (PC-3 cells) was 13.7%. For the same molecule, the “cells in late apoptosis” value (PC-3 cells) was 65.6%, the “cells in early apoptosis” value (MCF-7 cells) was 22.4% and the “cells in late apoptosis” value (MCF-7 cells) was 68.5%. It also gave an IC50 (HEK-293 cells) of 54300 ± 900 nM, a viability at 1 µM ([1]; HEK293, 1 μM) of 57.1% and a viability at 10 µM ([1]; HEK293, 10 μM) of 44.1%. For the same molecule, the viability at 50 µM ([1]; HEK293, 50 μM) was 31.3% and the viability at 100 µM ([1]; HEK293, 100 μM) was 24.2%.
